Legend:
[1] = system: tyrosinase enzyme extracted from mushrooms; test: Tyrosinase inhibitory effect, absorbance at 475 nm; type: biochemical; conditions: mushroom tyrosinase, tyrosine substrate, 37° C., concentration of test substance not given
Description: The tyrosinase enzyme was extracted from mushrooms and obtained from Sigma (SIGMA). First, tyrosine as a substrate was dissolved in distilled water to prepare 0.3 mg/ml of a solution. The solution was placed by 1.0 ml in a test tube, and then 1.0 ml of potassium phosphate buffer solution (concentration 0.1 mol, PH 6.8) and 0.7 ml of distilled water were added to prepare a reaction solution.
0.2 ml of the test substance was placed in the reaction solution, and then the mixture was allowed to react in a thermostatic chamber at 37° C. for 10 minutes. At this time, as a negative control group (no addition), that obtained by adding 0.2 ml of only solvent in place of each test substance was prepared. As a positive control group, ascorbic acid was used. 2500 unit/ml of tyrosinase solution was added by 0.1 ml to the reaction solution, and the mixture was reacted again in a thermostatic chamber at 37° C. for 10 minutes. The test tube containing this reaction solution was placed in ice water and quenched to stop the reaction. Absorbance at a wavelength of 475 nm was measured with a photoelectron spectrometer. Each tyrosinase inhibitory effect was calculated by Mathematical Equation 1 below. The tests were conducted on ginsenoside Rd and compound O, respectively. Tyrosinase inhibition rate (%)=100−[{(Reaction absorbance of test substance)/(Reaction absorbance of negative control group)}×100] […]

B16/F10 melanoma cells = test: Inhibition of melanin production in B16/F10 melanoma cells; type: cell-based, mouse; conditions: 72 hours, concentration not given
From the text: The B16/F10 melanoma used in this test example is a cell line derived from a mouse and is a cancer cell caused by malignant alteration of a cell secreting a black pigment called melanin. The extent to which and melanin production was decreased by treating the test substance during artificial cultivation of this cell was compared and evaluated. The B16/F10 melanoma used in this test example was purchased from the Korean Cell Line Bank (KCLB No: 8008) and used. Measurement of melanin biosynthesis inhibitory effect of B16/F10 melanoma was carried out as follows. B16/F10 melanoma was dispensed in a 6-well plate (5×10^5/well) and cultured in DMEM (Dulbecco's Modified Eagle's Medium) containing 10% FBS (fetal bovine serum) for about 24 hours at 37° C. in a 5% CO2 incubator (MCO-20 AIC, Sanyo). The test substance was added to a new DMEM medium not containing FBS and allowed to stand for 72 hours. […] Absorbance was measured at 405 nm using an ELISA reader (DIbiotech, Korea). […] In comparison with the melanin content in the control group, the degree of inhibition of melanin production of each test substance was measured. […] Melanin production inhibition rate was calculated according to Mathematical Equation 2 below, and the results are shown in Table 4. Melanin production inhibition rate (%)=100−[{(Absorbance of test substance)/(Absorbance of control group)}×100] […]

[2] = system: keratinocytes (cell line: HaCaT); test: Inhibition of UVB-induced reactive oxygen species (ROS) generation, DCF-DA fluorescence; type: cell-based
Description: 5×10^4 keratinocytes (cell line: HaCaT; obtained from: ATCC) was placed in each well of a 24-well plate and allowed to adhere for 24 hours. After 16 hours, ginsenoside Rd was treated with 1%. […] After 2 hours, the culture solution was removed, and 100 μl of phosphate buffer saline (PBS) was added to each well. The keratinocytes were irradiated with ultraviolet rays of 30 mJ/cm^2 using an ultraviolet B (UVB) lamp (Model: […], UV B 15 W, Sankyo Denki, Japan), and then PBS was taken out and 200 μl of keratinocyte culture solution was added to each well. Herein, ginsenoside Rd was again treated and the amount of reactive oxygen species increased by ultraviolet stimulation was determined for each fixed period of time. The amount of ROS was determined by referring to Tan's method for measuring the fluorescence of DCF-DA (dichlorofluorescin diacetate) oxidized by ROS (Tan et al., 1998, J. Cell Biol. Vol. 141, pp 1423-1432). The ginsenoside Rd was replaced with Compound O, and the test was carried out in the same process.

Candida albicans = test: Antibacterial activity, MIC by two-fold dilution; type: cell-based; conditions: 25° C., 48 hours
Description: (§1) Antibacterial experiments were conducted to evaluate the antibacterial activity of ginsenoside Rd and Compound O. Specific experimental methods are as follows. The strains of Staphylococcus aureus, Escherichia coli and Pseudomonas aeruginosa used in the experiment were cultured in Trypticase Soy Broth, and the strains of Candida albicans, Aspergillus niger were cultured in Sabouraud Dextrose Broth medium. A diluted solution in which the culture solution is diluted 1/100 (Candida albicans strain 1/10) in each culture medium was used as a test strain solution. A spore suspension of Aspergillus niger (2×10^8 cfu/ml) was used as a test strain solution. A solution prepared by adding 0.15 ml of the test strain solution to 15 ml of each medium and thoroughly mixing the same was used as a diluted solution. 96 Deep well plate was placed by 16 μl ginsenoside Rd 10 ppm to 1 row and placed by 184 μl a diluted solution. The diluted solution was placed by 100 μl in the rest of the wells. The mixed solution of 1 row was thoroughly mixed and 100 μl was taken and placed in 2 row and thoroughly mixed. 100 μl was taken again and placed in 3 row. A two-fold dilution was carried out in this manner. Staphylococcus aureus, Escherichia coli and Pseudomonas aeruginosa were cultured in a thermostatic chamber at 32° C., and Candida albicans and Aspergillus niger were cultured in a thermostatic chamber at 25° C. After 48 hours, the growth of strains was checked by the degree of suspension and microscope, and the Minimum Inhibitory Concentration (MIC) value was determined. The ginsenoside Rd was replaced with Compound O, and the test was carried out in the same process.

Escherichia coli = test: Antibacterial activity, MIC by two-fold dilution; type: cell-based; conditions: 32° C., 48 hours
Description: as §1

Aspergillus niger = test: Antibacterial activity, MIC by two-fold dilution; type: cell-based; conditions: 25° C., 48 hours
Description: as §1

Staphylococcus aureus = test: Antibacterial activity, MIC by two-fold dilution; type: cell-based; conditions: 32° C., 48 hours
Description: as §1

Pseudomonas aeruginosa = test: Antibacterial activity, MIC by two-fold dilution; type: cell-based; conditions: 32° C., 48 hours
Description: as §1

SMILES	Tyrosinase inhibition rate (%) [1] [%]	Melanin production inhibition rate (%) (B16/F10 melanoma cells)	Amount of ROS, ratio to vehicle control ([2]; 0 hr after irradiation of UVB 30 mJ/cm^2, test substance treated with 1%)	Amount of ROS, ratio to vehicle control ([2]; 2 hr after irradiation of UVB 30 mJ/cm^2, test substance treated with 1%)	Amount of ROS, ratio to vehicle control ([2]; 3 hr after irradiation of UVB 30 mJ/cm^2, test substance treated with 1%)	Minimum Inhibitory Concentration (MIC) (Candida albicans) [%]	Minimum Inhibitory Concentration (MIC) (Escherichia coli) [%]	Minimum Inhibitory Concentration (MIC) (Aspergillus niger) [%]	Minimum Inhibitory Concentration (MIC) (Staphylococcus aureus) [%]	Minimum Inhibitory Concentration (MIC) (Pseudomonas aeruginosa) [%]
O=C1O[C@H]([C@@H](O)CO)C(O)=C1O [Ascorbic acid, reference compound]	56	–	–	–	–	–	–	–	–	–
CC(C)=CCC[C@](C)(O[C@@H]1O[C@H](CO)[C@@H](O)[C@H](O)[C@H]1O)[C@H]1CC[C@]2(C)[C@@H]1[C@H](O)C[C@@H]1[C@@]3(C)CC[C@H](O[C@@H]4O[C@H](CO)[C@@H](O)[C@H](O)[C@H]4O[C@@H]4O[C@H](CO)[C@@H](O)[C@H](O)[C@H]4O)C(C)(C)[C@@H]3CC[C@]12C [Ginsenoside Rd]	68	67	100	251	286	>4	0.191	>3	0.07	0.25
O=c1cc(CO)occ1O [Kojic acid, reference compound]	–	49	–	–	–	–	–	–	–	–

Source: US10835470B2, “Cosmetics composition containing ginsenoside as active ingredient” (AMOREPACIFIC CORPORATION, priority 2015, dated 2020)
